Data as given in the supplement of paper PMC10307832.

Experiments:
Experiment in all cases: relative viability (nuclei count vs DMSO), 5 days (fraction); higher = more cells survive
[1] = compound: CCOc1cc2ncc(C#N)c(Nc3ccc(OCc4ccccn4)c(Cl)c3)c2cc1NC(=O)/C=C/CN(C)C [Neratinib] + CC(=O)c1c(C)c2cnc(Nc3ccc(N4CCNCC4)cn3)nc2n(C2CCCC2)c1=O [Palbociclib] (partner 0.5 µM)
Procedure, shortened: (§1)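 Relative viability is defined as nuclei in treated wells over nuclei in vehicle wells. Duplicate plates were run and medians reported. Lung cancer cell lines in 1536-well plates were dosed by pin tool one day after seeding, with one drug or with a fixed anchor-drug dose plus five library-drug doses (not always all listed) in √10 steps, and nuclei were counted after 5 days.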

[2] = compound: CCOc1cc2ncc(C#N)c(Nc3ccc(OCc4ccccn4)c(Cl)c3)c2cc1NC(=O)/C=C/CN(C)C [Neratinib] + Cc1nc(Nc2ncc(C(=O)Nc3c(C)cccc3Cl)s2)cc(N2CCN(CCO)CC2)n1 [Dasatinib] (partner 0.075 µM)
Procedure, shortened: as §1

[3] = compound: CCOc1cc2ncc(C#N)c(Nc3ccc(OCc4ccccn4)c(Cl)c3)c2cc1NC(=O)/C=C/CN(C)C [Neratinib] + CC(C)C[C@H](NC(=O)[C@H](Cc1ccccc1)NC(=O)c1cnccn1)B(O)O [Bortezomib] (partner 0.002 µM)
Procedure, shortened: as §1

[4] = compound: CCOc1cc2ncc(C#N)c(Nc3ccc(OCc4ccccn4)c(Cl)c3)c2cc1NC(=O)/C=C/CN(C)C [Neratinib] + Cc1nc(NC(=O)N2CCC[C@H]2C(N)=O)sc1-c1ccnc(C(C)(C)C(F)(F)F)c1 [Alpelisib] (partner 2 µM)
Procedure, shortened: as §1

## COR-L23
[1]; first compound 0.01 µM
  relative viability: 0.328
[1]; first compound 0.03162 µM
  relative viability: 0.333
[1]; first compound 0.1 µM
  relative viability: 0.275
[1]; first compound 0.3162 µM
  relative viability: 0.255
[1]; first compound 1 µM
  relative viability: 0.216
[2]; first compound 0.01 µM
  relative viability: 0.558
[2]; first compound 0.03162 µM
  relative viability: 0.602
[2]; first compound 0.1 µM
  relative viability: 0.489
[2]; first compound 0.3162 µM
  relative viability: 0.439
[2]; first compound 1 µM
  relative viability: 0.308
[3]; first compound 0.01 µM
  relative viability: 1.06
[3]; first compound 0.03162 µM
  relative viability: 1.18
[3]; first compound 0.1 µM
  relative viability: 0.888
[3]; first compound 0.3162 µM
  relative viability: 0.964
[3]; first compound 1 µM
  relative viability: 0.799
[4]; first compound 0.01 µM
  relative viability: 0.971
[4]; first compound 0.03162 µM
  relative viability: 0.83
[4]; first compound 0.1 µM
  relative viability: 0.732
[4]; first compound 0.3162 µM
  relative viability: 0.698
[4]; first compound 1 µM
  relative viability: 0.322

## HCC-78
[1]; first compound 0.01 µM
  relative viability: 0.467
[1]; first compound 0.03162 µM
  relative viability: 0.479
[1]; first compound 0.1 µM
  relative viability: 0.409
[1]; first compound 0.3162 µM
  relative viability: 0.424
[1]; first compound 1 µM
  relative viability: 0.463
[2]; first compound 0.01 µM
  relative viability: 0.5
[2]; first compound 0.03162 µM
  relative viability: 0.363
[2]; first compound 0.1 µM
  relative viability: 0.342
[2]; first compound 0.3162 µM
  relative viability: 0.292
[2]; first compound 1 µM
  relative viability: 0.276
[3]; first compound 0.01 µM
  relative viability: 0.478
[3]; first compound 0.03162 µM
  relative viability: 0.446
[3]; first compound 0.1 µM
  relative viability: 0.432
[3]; first compound 0.3162 µM
  relative viability: 0.43
[3]; first compound 1 µM
  relative viability: 0.301
[4]; first compound 0.01 µM
  relative viability: 0.359
[4]; first compound 0.03162 µM
  relative viability: 0.344
[4]; first compound 0.1 µM
  relative viability: 0.329
[4]; first compound 0.3162 µM
  relative viability: 0.254
[4]; first compound 1 µM
  relative viability: 0.225

## NCI-H3122
[1]; first compound 0.01 µM
  relative viability: 0.205
[1]; first compound 0.03162 µM
  relative viability: 0.208
[1]; first compound 0.1 µM
  relative viability: 0.188
[1]; first compound 0.3162 µM
  relative viability: 0.181
[1]; first compound 1 µM
  relative viability: 0.148
[2]; first compound 0.01 µM
  relative viability: 0.872
[2]; first compound 0.03162 µM
  relative viability: 0.939
[2]; first compound 0.1 µM
  relative viability: 0.729
[2]; first compound 0.3162 µM
  relative viability: 0.565
[2]; first compound 1 µM
  relative viability: 0.132
[3]; first compound 0.01 µM
  relative viability: 1.05
[3]; first compound 0.03162 µM
  relative viability: 1.1
[3]; first compound 0.1 µM
  relative viability: 0.98
[3]; first compound 0.3162 µM
  relative viability: 1.06
[3]; first compound 1 µM
  relative viability: 0.775
[4]; first compound 0.01 µM
  relative viability: 0.951
[4]; first compound 0.03162 µM
  relative viability: 0.746
[4]; first compound 0.1 µM
  relative viability: 0.586
[4]; first compound 0.3162 µM
  relative viability: 0.829
[4]; first compound 1 µM
  relative viability: 0.299

## NCI-H1993
[1]; first compound 0.01 µM
  relative viability: 0.768
[1]; first compound 0.03162 µM
  relative viability: 0.578
[1]; first compound 0.1 µM
  relative viability: 0.522
[1]; first compound 0.3162 µM
  relative viability: 0.466
[1]; first compound 1 µM
  relative viability: 0.568
[2]; first compound 0.01 µM
  relative viability: 0.638
[2]; first compound 0.03162 µM
  relative viability: 0.607
[2]; first compound 0.1 µM
  relative viability: 0.558
[2]; first compound 0.3162 µM
  relative viability: 0.589
[2]; first compound 1 µM
  relative viability: 0.575
[3]; first compound 0.03162 µM
  relative viability: 1.11
[3]; first compound 0.1 µM
  relative viability: 0.763
[3]; first compound 0.3162 µM
  relative viability: 0.646
[4]; first compound 0.01 µM
  relative viability: 0.624
[4]; first compound 0.03162 µM
  relative viability: 0.666
[4]; first compound 0.1 µM
  relative viability: 0.717
[4]; first compound 0.3162 µM
  relative viability: 0.687
[4]; first compound 1 µM
  relative viability: 0.664

## EMC-BAC-2
[1]; first compound 0.01 µM
  relative viability: 0.538
[1]; first compound 0.03162 µM
  relative viability: 0.526
[1]; first compound 0.1 µM
  relative viability: 0.492
[1]; first compound 0.3162 µM
  relative viability: 0.532
[1]; first compound 1 µM
  relative viability: 0.41
[2]; first compound 0.01 µM
  relative viability: 0.368
[2]; first compound 0.03162 µM
  relative viability: 0.342
[2]; first compound 0.1 µM
  relative viability: 0.302
[2]; first compound 0.3162 µM
  relative viability: 0.33
[2]; first compound 1 µM
  relative viability: 0.248
[3]; first compound 0.01 µM
  relative viability: 1.25
[3]; first compound 0.03162 µM
  relative viability: 1.13
[3]; first compound 0.1 µM
  relative viability: 0.979
[3]; first compound 0.3162 µM
  relative viability: 0.99
[3]; first compound 1 µM
  relative viability: 0.889
[4]; first compound 0.01 µM
  relative viability: 0.774
[4]; first compound 0.1 µM
  relative viability: 0.667
[4]; first compound 0.3162 µM
  relative viability: 0.576
[4]; first compound 1 µM
  relative viability: 0.301

## NCI-H661
[1]; first compound 0.01 µM
  relative viability: 0.437
[1]; first compound 0.03162 µM
  relative viability: 0.388
[1]; first compound 0.1 µM
  relative viability: 0.323
[1]; first compound 0.3162 µM
  relative viability: 0.318
[1]; first compound 1 µM
  relative viability: 0.298
[2]; first compound 0.01 µM
  relative viability: 0.924
[2]; first compound 0.03162 µM
  relative viability: 0.741
[2]; first compound 0.1 µM
  relative viability: 0.5
[2]; first compound 0.3162 µM
  relative viability: 0.317
[2]; first compound 1 µM
  relative viability: 0.338
[3]; first compound 0.01 µM
  relative viability: 0.779
[3]; first compound 0.03162 µM
  relative viability: 0.697
[3]; first compound 0.1 µM
  relative viability: 0.675
[3]; first compound 0.3162 µM
  relative viability: 0.446
[3]; first compound 1 µM
  relative viability: 0.24
[4]; first compound 0.01 µM
  relative viability: 0.66
[4]; first compound 0.03162 µM
  relative viability: 0.959
[4]; first compound 0.1 µM
  relative viability: 0.443
[4]; first compound 0.3162 µM
  relative viability: 0.187
[4]; first compound 1 µM
  relative viability: 0.236

## LCLC-97TM1
[1]; first compound 0.01 µM
  relative viability: 0.258
[1]; first compound 0.03162 µM
  relative viability: 0.237
[1]; first compound 0.1 µM
  relative viability: 0.228
[1]; first compound 1 µM
  relative viability: 0.117
[2]; first compound 0.01 µM
  relative viability: 1.05
[2]; first compound 0.03162 µM
  relative viability: 0.859
[2]; first compound 0.1 µM
  relative viability: 0.858
[2]; first compound 0.3162 µM
  relative viability: 0.726
[2]; first compound 1 µM
  relative viability: 0.693
[3]; first compound 0.01 µM
  relative viability: 0.786
[3]; first compound 0.03162 µM
  relative viability: 0.347
[3]; first compound 0.1 µM
  relative viability: 0.739
[3]; first compound 0.3162 µM
  relative viability: 0.41
[3]; first compound 1 µM
  relative viability: 0.298
[4]; first compound 0.01 µM
  relative viability: 0.26
[4]; first compound 0.03162 µM
  relative viability: 0.254
[4]; first compound 0.1 µM
  relative viability: 0.24
[4]; first compound 0.3162 µM
  relative viability: 0.255
[4]; first compound 1 µM
  relative viability: 0.115

## H3255
[1]; first compound 0.01 µM
  relative viability: 0.304
[1]; first compound 0.03162 µM
  relative viability: 0.324
[1]; first compound 0.1 µM
  relative viability: 0.305
[1]; first compound 0.3162 µM
  relative viability: 0.256
[1]; first compound 1 µM
  relative viability: 0.201
[2]; first compound 0.01 µM
  relative viability: 0.38
[2]; first compound 0.03162 µM
  relative viability: 0.392
[2]; first compound 0.1 µM
  relative viability: 0.283
[2]; first compound 0.3162 µM
  relative viability: 0.195
[3]; first compound 0.01 µM
  relative viability: 0.776
[3]; first compound 0.03162 µM
  relative viability: 0.97
[3]; first compound 0.1 µM
  relative viability: 0.556
[3]; first compound 0.3162 µM
  relative viability: 0.225
[3]; first compound 1 µM
  relative viability: 0.233
[4]; first compound 0.01 µM
  relative viability: 0.706
[4]; first compound 0.1 µM
  relative viability: 0.468
[4]; first compound 0.3162 µM
  relative viability: 0.171
[4]; first compound 1 µM
  relative viability: 0.107
